This is an account of results in patent US7220777B2, “Lactam derivatives as antagonists for human 11cby receptors” (SmithKline Beecham P.L.C., priority 2001, dated 2007).

The target in experiment [1] is T1, 353 form of the 11CBy receptor (Homo sapiens, UniProt Q99705).
T1 construct: expressed in transfected cells; well washed membranes
Description: Radioligand ([125I]-MCH) competitive binding on membranes from HEK293 cells stably expressing 11CBy receptors. To be noted: [125I]-MCH 0.22 nM, 45 min 37° C., pH7.4, pKi calculated from IC50. On the procedure:
Membranes ([…] protein) were incubated with [^125I]-Melanin Concentrating Hormone (0.22 nM) (obtained from NEN) in the presence and absence of competing test compounds for 45 min at 37° C. in a buffer (pH7.4), containing 50 mM Tris and 0.2% BSA. Non-specific binding was defined using […] Melanin Concentrating Hormone (obtained from Bachem). The test compounds were added at concentrations between […] and 10 pM in 10 concentration steps. Following incubation, the reaction was stopped by filtration through GF/B filters and washed with 4×1 ml of ice-cold 50 mM Tris buffer. Microscint 20 (Packard) was added to the filters and the radioactivity measured using a Packard TopCount. Bound cpm in the presence of test compound was expressed as a fraction of the bound cpm in the absence of test compound and plotted against the concentration of compound. From this an IC50 was determined from which the pKi was calculated.

Experiment [2] concerns conscious CD rats. Description: Effects of 11CBy antagonists on plasma glucagon and blood glucose levels (rat glucagon secretion model). Format: in vivo.
Description: Study of Effects of 11CBy Antagonists on Plasma Glucagon and Blood Glucose Levels
Setting [3] is: Example A4 15 mg/kg + MCH group, 5 min.
[4] abbreviates: Example A4 15 mg/kg + MCH group, 15 min.
Where [5] appears, read: Example A4 15 mg/kg + MCH group, time 0.

As a reminder, the Ki is the dissociation constant of the complex between target and ligand, obtained from inhibition or displacement.

Where no end group is shown, it is not given here.

T1 sequence (Q99705 whole entry): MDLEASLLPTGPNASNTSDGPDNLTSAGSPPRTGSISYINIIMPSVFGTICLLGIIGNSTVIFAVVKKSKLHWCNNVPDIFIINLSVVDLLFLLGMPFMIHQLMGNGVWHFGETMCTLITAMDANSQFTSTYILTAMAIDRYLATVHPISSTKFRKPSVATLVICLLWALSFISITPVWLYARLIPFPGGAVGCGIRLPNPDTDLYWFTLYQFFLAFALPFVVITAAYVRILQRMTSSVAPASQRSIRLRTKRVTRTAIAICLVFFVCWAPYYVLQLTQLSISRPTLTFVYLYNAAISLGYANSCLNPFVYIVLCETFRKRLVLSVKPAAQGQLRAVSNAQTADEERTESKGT

Regarding `COc1cc(-n2cnc3cc(-c4ccccc4)sc3c2=O)ccc1OCCN1CCCC1` [Example F1, 3-[3-Methoxy-4-(2-pyrrolidin-1-yl-ethoxy)-phenyl]-6-phenyl-3H-thieno[3,2-d]pyrimidin-4-one], the Ki in experiment [1] is 10 to 31.6 nM.
Same read-out and setting: the value for `COc1cc(-n2nnc3cc(-c4ccccc4)ccc3c2=O)ccc1OCCN1CCCC1` [Example C5, 3-[3-Methoxy-4-(2-pyrrolidin-1-yl-ethoxy)-phenyl]-7-phenyl-3H-benzo[d][1,2,3]triazin-4-one] was 10 to 31.6 nM; that for `COc1cc(N2C(=O)c3ccc(Nc4ccccc4)cc3C2=O)ccc1OCCN1CCCC1` [Example A5, 2-[3-Methoxy-4-(2-pyrrolidin-1-yl-ethoxy)-phenyl]-5-phenylamino-isoindole-1,3-dione] was 10 to 31.6 nM.
“MCH (DFDMLRCMLGRVYRPCWQV; ends and bridges not checked; cysteine pairing not given here; UniProt P20382 147-165, looked up) [reference compound]”: the Blood glucose in experiment [2] (MCH 50 ug/kg group, 5 min) is listed as 6.5 ± 0.33 (7) mmol/l; in experiment [2] (MCH 50 ug/kg group, 15 min), 11.81 ± 1.27 (7) mmol/l; in experiment [2] (MCH 50 ug/kg group, time 0), 5.87 ± 0.22 (7) mmol/l. Moreover, the Plasma glucagon in experiment [2] (MCH 50 ug/kg group, 5 min) is given as 35.16 ± 2.5 (7) pg/ml; in experiment [2] (MCH 50 ug/kg group, 15 min) it was 28.67 ± 1.61 (7) pg/ml; in experiment [2] (MCH 50 ug/kg group, time 0), 23.6 ± 1.2 (6) pg/ml. Further, the “increase in plasma glucagon from the pre-treatment value” in experiment [2] (MCH 50 ug/kg iv alone, after 5 minutes) is given as 48.7%; in experiment [2] (MCH 50 ug/kg iv alone, after 15 minutes), 21%. Further, the “maximum rise in blood glucose concentration” value in experiment [2] (MCH 50 ug/kg iv alone, after 15 min) was 101%.
For `COc1cc(N2C(=O)c3ccc(Oc4ccccc4)cc3C2=O)ccc1OCCN1CCCC1.Cl` [Example A4, 2-[3-Methoxy-4-(2-pyrrolidin-1-yl-ethoxy)-phenyl]-5-phenoxy-isoindole-1,3-dione hydrochloride], the “pKi in binding to the 353 form of the 11CBy receptor” value in experiment [1] is 7.7. Further, the Blood glucose is listed as 6.46 ± 0.46 (7) mmol/l in experiment [2] (setting [3]), 7.71 ± 0.43 (7) mmol/l in experiment [2] (setting [4]) and 5.35 ± 0.23 (7) mmol/l in experiment [2] (setting [5]). The Plasma glucagon in experiment [2] (setting [3]) was 30.85 ± 2.01 (7) pg/ml; in experiment [2] (setting [4]), 22.87 ± 0.56 (5) pg/ml; in experiment [2] (setting [5]) it was 23.45 ± 1.16 (7) pg/ml. The “rise in plasma glucagon” value in experiment [2] (Example A4 15 mg/kg iv five minutes prior to iv MCH bolus, after 5 minutes) is given as “no rise”; in experiment [2] (Example A4 15 mg/kg iv five minutes prior to iv MCH bolus, after 15 min), 2.7%. Further, the blood glucose increase in experiment [2] (Example A4 15 mg/kg iv five minutes prior to iv MCH bolus, time not given) is on record as 44%.
